This is an account of results in patent US8067445B2, “N,N-disubstituted aminoalkylbiphenyl antagonists of prostaglandin D2 receptors” (Panmira Pharmaceuticals, LLC, priority 2008, dated 2011).

Molecules are shown by their SMILES.

One assay has as its target T1, human DP2 receptor (Homo sapiens, UniProt Q9Y5Y4).
T1 construct: expressed in transfected cells
T1 sequence (Q9Y5Y4 1-395): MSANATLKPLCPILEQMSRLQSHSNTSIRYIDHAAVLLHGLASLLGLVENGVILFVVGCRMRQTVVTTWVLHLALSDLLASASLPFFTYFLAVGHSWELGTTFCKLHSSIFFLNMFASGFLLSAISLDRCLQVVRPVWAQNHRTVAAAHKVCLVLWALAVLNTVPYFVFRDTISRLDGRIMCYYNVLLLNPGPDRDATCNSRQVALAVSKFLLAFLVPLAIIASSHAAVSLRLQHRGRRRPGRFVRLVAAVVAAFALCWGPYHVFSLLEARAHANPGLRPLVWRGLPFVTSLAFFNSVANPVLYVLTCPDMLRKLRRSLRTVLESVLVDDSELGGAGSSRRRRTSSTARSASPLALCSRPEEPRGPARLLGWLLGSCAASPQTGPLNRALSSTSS
The assay can be described thus: DP2/CRTH2 radioligand binding assay ([3H]PGD2). The following applies: [3H]PGD2 binding, membranes of HEK293 cells expressing human DP2; read-out: hDP2. The essentials:
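Membranes from HEK293 cells stably expressing recombinant human DP2 incubated 60 min at room temperature with 1 nM [3H]PGD2 and compound in pH 7.4 Hepes/MnCl2/EDTA buffer, ± 0.2% human serum albumin. Bound radioactivity measured after filtration; non-specific binding defined with 10 μM PGD2. IC50 from titration curves.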

Assay [1] addresses T2, recombinant human CRTH2 receptor (Homo sapiens, UniProt Q9Y5Y4).
T2 construct: expressed in transfected cells
T2 sequence (Q9Y5Y4 1-395): T1 sequence (Q9Y5Y4 1-395)
Briefly: GTPγS binding assay. The format is biochemical. Particulars: +HSA (0.2% human serum albumin), 80 nM PGD2, CHO cell membranes; read-out: hDP2 GTPγS μM (+HSA). As to the method:
The ability of a compound to inhibit binding of GTP to DP2 is assessed via a membrane GTPγS assay. CHO cells stably expressing the recombinant human CRTH2 receptor are resuspended in 10 mM Hepes, 7.4 containing 1 mM DTT, lysed and centrifuged at 75,000×g to pellet the membranes. The membranes are resuspended in 10 mM Hepes, 7.4 containing 1 mM DTT and 10% glycerol. […] The reactions are terminated by rapid filtration through Whatman GF/B glass fibre filter plates. The filter plates are washed 3 times with 1 ml cold Assay Buffer and dried. Scintillant is then added to the plates and the radioactivity retained on the filters is determined on a Packard TopCount (Perkin Elmer). Specific binding is determined as total radioactive binding minus non-specific binding in the absence of the ligand (80 nM PGD2). IC50s were determined using Graphpad prism analysis of drug titration curves.
Background: Binding of GTPγS marks nucleotide exchange on a G protein.

Another assay has as its target T3, human DP1 receptor (Homo sapiens, UniProt Q13258).
T3 construct: tissue Biological Specialty Corporation; host or cells: human platelet membranes
T3 sequence (Q13258 1-359): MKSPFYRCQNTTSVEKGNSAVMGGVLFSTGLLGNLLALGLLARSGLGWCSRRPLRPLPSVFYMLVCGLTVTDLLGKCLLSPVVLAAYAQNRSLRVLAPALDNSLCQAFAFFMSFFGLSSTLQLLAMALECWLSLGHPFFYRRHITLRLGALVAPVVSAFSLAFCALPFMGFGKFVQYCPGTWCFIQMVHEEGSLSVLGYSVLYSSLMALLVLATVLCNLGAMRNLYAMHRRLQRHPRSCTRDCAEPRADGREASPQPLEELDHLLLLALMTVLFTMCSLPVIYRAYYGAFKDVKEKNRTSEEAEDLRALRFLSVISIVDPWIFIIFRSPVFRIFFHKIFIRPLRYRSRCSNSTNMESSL
Briefly: DP1 radioligand binding assay ([3H]BWA868C, platelet membranes). Particulars: [3H]BWA868C binding, human platelet membranes; read-out: hDP1. The essentials:
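Human platelet membranes (20 μg protein/well) incubated 60 min at room temperature with 2 nM [3H]BWA868C and compound in 50 mM Hepes, 10 mM MnCl2, 1 mM EDTA, pH 7.4, ± 0.2% human serum albumin. Bound radioactivity measured after filtration; nonspecific binding defined with 10 μM BWA868C; IC50 from titration curves.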

Turning to `COC(=O)N(Cc1ccccc1)Cc1cc(C(F)(F)F)ccc1-c1cc(CC(=O)O)ccc1OC` [Compound 1-24, {2′-[(Benzyl-methoxycarbonyl-amino)-methyl]-6-methoxy-4′-trifluoromethyl-biphenyl-3-yl}-acetic acid], the IC50 at human DP2 receptor was less than 300 nM; in assay [1], less than 0.3 µM; on human DP1 receptor, 1000 to 30000 nM.

In the case of `COC(=O)N(CCc1ccccc1)Cc1cc(C(F)(F)F)ccc1-c1cc(CC(=O)O)ccc1OC` [Compound 1-25, {6-Methoxy-2′-[(methoxycarbonyl-phenethyl-amino)-methyl]-4′-trifluoromethyl-biphenyl-3-yl}-acetic acid], the IC50 was less than 300 nM on human DP2 receptor, less than 0.3 µM in assay [1] and 1000 to 30000 nM on human DP1 receptor.

Regarding `COC(=O)N(Cc1cc(C(F)(F)F)ccc1-c1cc(CC(=O)O)ccc1OC)C1Cc2ccccc2C1` [Compound 1-26, {2′-[(Indan-2-yl-methoxycarbonyl-amino)-methyl]-6-methoxy-4′-trifluoromethyl-biphenyl-3-yl}-acetic acid], the IC50 was less than 300 nM on human DP2 receptor, less than 0.3 µM in assay [1] and 1000 to 30000 nM at human DP1 receptor.

As to `CCN(Cc1cc(C(F)(F)F)ccc1-c1cc(CC(=O)O)ccc1OC)C(=O)Nc1ccccc1Br` [Compound 1-47, {2′-[3-(2-Bromo-phenyl)-1-ethyl-ureidomethyl]-6-methoxy-4′-trifluoromethyl-biphenyl-3-yl}-acetic acid], the IC50 was less than 300 nM on human DP2 receptor, less than 0.3 µM in assay [1] and 1000 to 30000 nM on human DP1 receptor.

Turning to `CCN(Cc1cc(C(F)(F)F)ccc1-c1cc(CC(=O)O)ccc1OC)C(=O)N1CCCC1` [Compound 1-97, (2′-{[Ethyl-(pyrrolidine-1-carbonyl)-amino]-methyl}-6-methoxy-4′-trifluoromethyl-biphenyl-3-yl)-acetic acid], the values for the IC50 (on human DP2 receptor; in assay [1]; on human DP1 receptor) were less than 300 nM, less than 0.3 µM and 1000 to 30000 nM, respectively.

Consider `CCN(Cc1cc(C(F)(F)F)ccc1-c1cc(C(C)C(=O)O)ccc1OC)C(=O)OCc1ccccc1` (stereo not drawn) [Compound 1-98, 2-{2′-[(Benzyloxycarbonyl-ethyl-amino)-methyl]-6-methoxy-4′-trifluoromethyl-biphenyl-3-yl}-propionic acid], for which the IC50 on human DP2 receptor is less than 300 nM; in assay [1] it was less than 0.3 µM; on human DP1 receptor, 1000 to 30000 nM.

Take `CCN(Cc1cc(C(F)(F)F)ccc1-c1cc(CC(=O)O)ccc1OC)C(=O)NC#N` [Compound 1-99, [2′-(3-Cyano-1-ethyl-ureidomethyl)-6-methoxy-4′-trifluoromethyl-biphenyl-3-yl]-acetic acid]: the IC50 at human DP2 receptor is less than 300 nM; in assay [1], 0.3 to 1 µM; at human DP1 receptor, 1000 to 30000 nM.

For `CCN(Cc1cc(C(F)(F)F)ccc1-c1cc(CC(=O)O)ccc1OC)S(=O)(=O)c1ccc(Cl)cc1` [Compound 1-100, (2′-{[(4-Chloro-benzenesulfonyl)-ethyl-amino]-methyl}-6-methoxy-4′-trifluoromethyl-biphenyl-3-yl)-acetic acid], the IC50 at human DP2 receptor is less than 300 nM; in assay [1] it was 1 to 30 µM; on human DP1 receptor, 1000 to 30000 nM.

For `CCN(Cc1cc(C(F)(F)F)ccc1-c1ccc(OC)c(CC(=O)O)c1)C(=O)OCc1ccccc1` [Compound 1-107, {2′-[(Benzyloxycarbonyl-ethyl-amino)-methyl]-4-methoxy-4′-trifluoromethyl-biphenyl-3-yl}-acetic acid], the IC50 is less than 300 nM at human DP2 receptor, less than 0.3 µM in assay [1] and 1000 to 30000 nM at human DP1 receptor.

As to `CCN(Cc1cc(C(F)(F)F)ccc1-c1cc(Cl)cc(CC(=O)O)c1)C(=O)OCc1ccccc1` [Compound 1-108, {2′-[(Benzyloxycarbonyl-ethyl-amino)-methyl]-5-chloro-4′-trifluoromethyl-biphenyl-3-yl}-acetic acid], the IC50 on human DP2 receptor was less than 300 nM; in assay [1] it was less than 0.3 µM; at human DP1 receptor it was 1000 to 30000 nM.

For `CCN(Cc1cc(C(F)(F)F)ccc1-c1cc(CC(=O)O)cc(C(F)(F)F)c1)C(=O)OCc1ccccc1` [Compound 1-109, {2′-[(Benzyloxycarbonyl-ethyl-amino)-methyl]-5,4′-bis-trifluoromethyl-biphenyl-3-yl}-acetic acid], the results for the IC50 (at human DP2 receptor; in assay [1]; at human DP1 receptor) were less than 300 nM, less than 0.3 µM and 1000 to 30000 nM, respectively.

For `CCN(Cc1cc(C(F)(F)F)ccc1-c1cc(CC(=O)O)ccc1OC)/C(=N/C#N)NCc1ccccc1` [Compound 1-111, [2′-(N′-Benzyl-N″-cyano-N-ethyl-guanidinomethyl)-6-methoxy-4′-trifluoromethyl-biphenyl-3-yl]-acetic acid], the IC50 was less than 300 nM at human DP2 receptor, less than 0.3 µM in assay [1] and 1000 to 30000 nM on human DP1 receptor.

With `CCN(Cc1cc(C(F)(F)F)ccc1-c1cc(CC(=O)O)ccc1OC)/C(=N/C#N)NCC1CCCCC1` [Compound 1-112, [2′-(N′-Cyano-N″-cyclohexylmethyl-N-ethyl-guanidinomethyl)-6-methoxy-4′-trifluoromethyl-biphenyl-3-yl]-acetic acid], the results for the IC50 (at human DP2 receptor; in assay [1]; at human DP1 receptor) were less than 300 nM, less than 0.3 µM and 1000 to 30000 nM, respectively.

For `CCN(Cc1cc(C(F)(F)F)ccc1-c1cc(CC(=O)O)ccc1OC)/C(=N/C#N)NCC(C)(C)C` [Compound 1-113, {2′-[N′-Cyano-N″-(2,2-dimethyl-propyl)-N-ethyl-guanidinomethyl]-6-methoxy-4′-trifluoromethyl-biphenyl-3-yl}-acetic acid], the IC50 on human DP2 receptor is less than 300 nM; in assay [1], less than 0.3 µM; at human DP1 receptor it was 1000 to 30000 nM.

On to `CCN(Cc1cc(C(F)(F)F)ccc1-c1cc(CC(=O)O)ccc1OC)/C(=N/C#N)NCc1ccc(OC)cc1` [Compound 1-114, {2′-[N′-Cyano-N-ethyl-N″-(4-methoxy-benzyl)-guanidinomethyl]-6-methoxy-4′-trifluoromethyl-biphenyl-3-yl}-acetic acid], for which the IC50 on human DP2 receptor is less than 300 nM; in assay [1], less than 0.3 µM; on human DP1 receptor, 1000 to 30000 nM.

As for `CCN(Cc1cc(C(F)(F)F)ccc1-c1cc(CC(=O)O)ccc1OC)C(=O)CSc1ccccc1` [Compound 1-117, (2′-{[Ethyl-(2-phenylsulfanyl-acetyl)-amino]-methyl}-6-methoxy-4′-trifluoromethyl-biphenyl-3-yl)-acetic acid], the IC50 was less than 300 nM on human DP2 receptor, less than 0.3 µM in assay [1] and 1000 to 30000 nM on human DP1 receptor.

As for `CCN(Cc1cc(C(F)(F)F)ccc1-c1cc(CC(=O)O)ccc1OC)C(=O)C[S+]([O-])c1ccccc1` (stereo not drawn) [Compound 1-119, (2′-{[(2-Benzenesulfinyl-acetyl)-ethyl-amino]-methyl}-6-methoxy-4′-trifluoromethyl-biphenyl-3-yl)-acetic acid], the values for the IC50 (at human DP2 receptor; in assay [1]; on human DP1 receptor) were less than 300 nM, less than 0.3 µM and 1000 to 30000 nM, respectively.

As for `CCN(Cc1cc(C(F)(F)F)ccc1-c1cc(CC(=O)O)ccc1OC)C(=O)CS(=O)(=O)c1ccccc1` [Compound 1-120, (2′-{[(2-Benzenesulfonyl-acetyl)-ethyl-amino]-methyl}-6-methoxy-4′-trifluoromethyl-biphenyl-3-yl)-acetic acid], the IC50 was less than 300 nM at human DP2 receptor, less than 0.3 µM in assay [1] and 1000 to 30000 nM at human DP1 receptor.

As to `CCN(Cc1cc(C(F)(F)F)ccc1-c1cc(CC(=O)O)ccc1OC)C(=O)Nc1ccccc1` [Compound 1-121, [2′-(1-Ethyl-3-phenyl-ureidomethyl)-6-methoxy-4′-trifluoromethyl-biphenyl-3-yl]-acetic acid], the IC50 at human DP2 receptor was less than 300 nM; in assay [1], less than 0.3 µM; at human DP1 receptor it was 1000 to 30000 nM.
